Assay results: PMC13047053, “Crystal structure of human INPP5K with an allosteric inhibitor reveals the structural basis for species specific potency” (Scientific Reports, 2026)

Target: T1, human PIPP (Homo sapiens, UniProt Q15735)
T1 construct: full-length human PIPP (amino acids 1–1 006) containing an N-terminal His8-tag; His8 (N); made in house; host or cells: Expi293 cells (pcDNA3.4, transient)
T1 sequence (Q15735 1-1006): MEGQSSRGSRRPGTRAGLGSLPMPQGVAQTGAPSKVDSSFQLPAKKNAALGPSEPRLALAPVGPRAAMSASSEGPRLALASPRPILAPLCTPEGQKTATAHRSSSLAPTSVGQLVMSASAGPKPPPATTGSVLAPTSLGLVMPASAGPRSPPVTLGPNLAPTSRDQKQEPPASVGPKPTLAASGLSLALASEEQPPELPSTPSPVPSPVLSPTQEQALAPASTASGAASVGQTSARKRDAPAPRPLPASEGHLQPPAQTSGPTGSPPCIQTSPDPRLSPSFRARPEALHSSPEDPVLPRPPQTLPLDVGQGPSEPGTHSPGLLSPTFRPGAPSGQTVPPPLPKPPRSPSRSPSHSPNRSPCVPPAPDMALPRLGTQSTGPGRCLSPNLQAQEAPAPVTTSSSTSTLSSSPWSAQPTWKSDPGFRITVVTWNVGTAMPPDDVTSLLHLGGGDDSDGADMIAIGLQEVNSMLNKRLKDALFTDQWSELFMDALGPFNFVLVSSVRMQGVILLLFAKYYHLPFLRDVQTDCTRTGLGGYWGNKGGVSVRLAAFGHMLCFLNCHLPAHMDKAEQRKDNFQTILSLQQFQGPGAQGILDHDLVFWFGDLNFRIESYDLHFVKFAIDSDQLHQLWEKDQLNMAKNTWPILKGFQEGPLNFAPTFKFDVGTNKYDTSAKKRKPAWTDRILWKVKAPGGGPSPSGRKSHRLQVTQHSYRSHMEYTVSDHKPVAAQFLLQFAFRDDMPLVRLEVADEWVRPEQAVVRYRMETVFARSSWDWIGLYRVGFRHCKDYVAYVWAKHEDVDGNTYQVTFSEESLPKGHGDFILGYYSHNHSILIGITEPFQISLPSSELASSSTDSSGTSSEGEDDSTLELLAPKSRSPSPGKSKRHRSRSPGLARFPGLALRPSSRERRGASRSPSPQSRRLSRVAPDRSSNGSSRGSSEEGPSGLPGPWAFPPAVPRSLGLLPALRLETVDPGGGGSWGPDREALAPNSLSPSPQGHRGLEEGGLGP
Assay: Inorganic phosphate detection assay for phosphatase inhibition
Type: biochemical
Details: 20 µM diC8-PI(3,4,5)P3, 20 min
Text: The protein purification is described in detail elsewhere. Briefly, full-length human INPP5K (amino acids 1–448, UniProt ID: Q9BT40), rat INPP5K (aa 1–446, UniProt ID: Q9R0B6), mouse INPP5K (aa 1–468, UniProt ID: Q8C5L6), hamster INPP5K (aa 1–453, UniProt ID: G3HTF6), guinea pig INPP5K (aa 1–473, UniProt ID: H0V8T7) containing an N-terminal FLAG-tag, full-length human SHIP2 (aa 1–1 258) containing a C-terminal FLAG-tag, and full-length human PIPP (amino acids 1–1 006) containing an N-terminal His8-tag were all cloned into the pcDNA3.4 expression vector and transiently expressed in Expi293 cells (Thermo Fisher Scientific). The PH domain of human TAPP1 (amino acids 180–404) containing an N-terminal GST-tag was expressed in a pGEX6P1 expression vector (GE Healthcare) in E. coli strain BL21 ((Merck KGaA, Darmstadt, Germany)), following IPTG induction at 37 °C for 5 h. All the FLAG-tagged INPP5Ks and hSHIP2 were purified using affinity columns containing DDDDK-tagged protein purification gel (MBL, Medical & Biological Laboratories Co., Ltd., Tokyo, Japan), followed by size-exclusion chromatography with Superdex 200 columns (GE Healthcare). His8-tagged hPIPP was purified using Ni–NTA Superflow (Qiagen) and Superdex 200 columns. The GST-tagged hTAPP1 domain was purified using a Glutathione Sepharose 4B (GE Healthcare) and Superdex 200 columns. The purity of the protein obtained was evaluated using SDS-PAGE.
The release of inorganic phosphate was measured using a PiPer Phosphate Assay Kit (Thermo Fisher Scientific), according to the manufacturer’s instructions, but with some modifications. Enzyme reactions were performed in a final volume of 10 µL per well in a 384-well nonbinding black plates (Greiner Bio-One International, GmbH, Kremsmünster, Austria). The reaction mixtures containing 20 µM diC8-PI(3,4,5)P₃ and each enzyme (human INPP5K, mouse INPP5K, rat INPP5K, hamster INPP5K, guinea pig INPP5K, human SHIP2, or human PIPP) in reaction buffer (50 mM Tris–HCl pH 7.0, 150 mM NaCl, 7.5 mM MgCl₂, 0.03% Igepal CA-630, 0.03% gelatin), with or without various concentrations of inhibitor, were incubated for 20 min at room temperature. The reactions were then stopped and detection reactions were initiated by adding 5 µL of detection mix 1 (60 mM EDTA, 12 U/mL maltose phosphorylase, and 0.6 mM maltose in 100 mM Tris–HCl pH 8.0). After incubation for 60 min at room temperature, 5 µL of detection mix 2 (8 U/mL glucose oxidase, 0.8 U/mL HRP, and 100 µM Amplex Red in 100 mM Tris–HCl pH 8.0) was added, and the mixture was incubated for a further 30 min at room temperature in the dark. The fluorescence generated was measured using an Envision plate reader at 531/590 nm (excitation/emission), and the percentage inhibition was calculated as described above.

`CC(C)c1sc(NC(=O)c2ccccc2)c(C(=O)O)c1-c1ccccc1` [CPD-1] was tested, and the IC50 was greater than 100 µM.
